These results are taken from US5460797A, “Method for fixing tissues and cells for analysis using oxazolidine compounds” (Streck Laboratories, Inc., priority 1994, dated 1995).

The test system of data set [1] is RBC's. As to the kind of experiment: Relative RBC fixation detected by adding RBC lysing agent. Format: cell-based. As to conditions: 6% w/v solution, 24 hours, 22° C. Here is the method: (§1) A 6% w/v solution of each compound was used and samples tested at 24 hours (22° C). […] Relative RBC fixation was detected by adding known RBC lysing agent. […] Fixing is relative and depends on how long you want cells or tissues to remain fixed.

In data set [2] the test system is WBC's. As to the kind of experiment: WBC fixation (cells do not disintegrate or clump after removal of compound). Format: cell-based. As to conditions: 6% w/v solution, 24 hours, 22° C. Here is the method:
as §1

Data set [3] in a line: Formaldehyde content or release. In kind it is physicochemical.
Data set [4] deals with 6C3HED lymphosarcoma. As to the kind of experiment: Tumor immunization with fixed ascites cells and challenge with viable cells. In kind it is in vivo, C3H mice. To be noted: cells fixed in 3% agent; two immunizations; challenge 100,000 viable cells i.p.; ">65" is given as "No deaths at 65 days". How it is done:
(§2) Tumor Immunization. 6C3HED lymphosarcoma was grown in C3H mice as ascites (ascites cause collection of fluid in the peritoneal cavity). The ascites cells were then washed in phosphate buffered saline (PBS) containing 3% IDU, 3% Glydant, or 3% Dimethylol urea. The cells were then placed at 6° C. for 48 hours.
As a control for immunization, cells were also washed into PBS containing 3% para formaldehyde and held under the same conditions. After 48 hours, all the cell groups were washed into PBS to remove the fixatives. The cell count was adjusted to 200,000/ml. Five C3H mice were injected with each of the cell groups for the first immunization. The procedure was repeated two weeks later.
The immunized mice were challenged with 100,000 viable 63HED ascites cells by intraperitoneal injection. The efficacy of the immunization was determined by the average death time for each group of mice.

Data set [5] has as its system albumin. As to conditions: 24 hours incubation. Here is the method: Formaldehyde cross-links with itself and proteins to obscure the antigen. To determine if this is true, diazolidinyl urea was added to the protein, albumin.
Data set [6] can be described thus: Toxicity studies comparing diazolidinyl urea with formaldehyde. Format: in vivo. To be noted: for LD50: route and species not given. The text has this:
Unlike the typical histological fixing agents, the active agents of the invention have extremely low toxicity. For example, toxicity studies comparing diazolidinyl urea of the invention with formaldehyde of the prior art show the following: […]

For data set [7], the system named is 6C3HED lymphosarcoma ascites cells. As to the kind of experiment: Vital staining of ascites cells held in fixative 48 hours. In kind it is cell-based, C3H mice. To be noted: 3% in PBS, 6° C. How it is done: as §2
Data set [8] relates to human white blood cells. As to the kind of experiment: Stabilization of white blood cells for flow cytometry (leukocyte positive control). In kind it is cell-based. The text has this:
Leukocyte Positive Control Check for Antigen-Antibody Studies. Positive control methods are needed to verify the performance of reagents, preparation methods, staining procedures as well as the performance of the flow cytometer instrumentation itself. This requires a preparation of human white blood cells, preferably with a mixed distribution of leukocytes (lymphocytes, monocytes, and granulocytes), to evaluate the performance of the procedure before it is used to evaluate subject tissues, cells, or cell components. While much of the methodology used in this procedure is familiar to those skilled in the art, this invention is novel in its use of imidazolidinyl urea (IDU) as a cell stabilizer, the use of polyethylene glycol to reduce damage to the white blood cells during processing, the use of PMSF to inhibit protease activity, and the process itself.
The invention discloses a new method of producing a positive control check material with significant advances over the prior art. Production is begun by placing one pack of human white blood cells, obtainable from commercial blood banks, in each bottle of the centrifuge. Samples from each pack are placed into a plastic tube for screening on the flow cytometer. Because of the considerable variation from donor to donor in cluster designation antigen sites, only packs with similar properties are pooled. Each product pool should be limited to a particular ABO blood type to prevent clumping as a result of a histoin-compatibility reaction between the cells. The samples are placed into plastic tubes rather than glass because unfixed white blood cells may be activated by the glass causing them to adhere to the glass and each other.
The cells are prefixed 1:1 with 1% IDU in phosphate buffered saline ethylenediaminetetraacetic acid (PBS-EDTA) at 6° C. for one hour. […] The cells and all diluents used in the processing must be kept at 6° C. at all times by use of refrigeration and a chiller bath to reduce the amount of cell damage which alters the scattergram.
The bottle are next centrifuged at 900 rpm for 10 minutes, and the supernatant is removed. This angular velocity is sufficient to pellet the white blood cells without damaging them. Ammonium chloride tris, 200 ml/bottle set at 6° C. for 20-30 minutes, is then used to lyse the red blood cells.
A second centrifugation follows, again at 900 rpm for 10 minutes, and the supernatant is removed. Next 250 ml/bottle of ammonium chloride tris are added at 6° C. or 45-60 minutes, with 60 minutes usually ensuring complete lysis of the red blood cells.
The material is then centrifuged a third time at 900 rpm for 10 minutes and then the supernatant is removed. […]
(Flow cytometry measures light scatter and fluorescence of single cells or particles in a stream.)

For data set [9], the system named is tetanus toxin. Format: in vivo, Swiss mice.
Setting [10] is: solution (Glydant), as such (Suttocide).

Like-named read-outs stand apart in the source and are kept apart here.

As for `O=[N+]([O-])C(Br)(CO)CO` [Bronopol, 2-bromo-2-nitropropane-1,3-diol], the “Fixation of RBC's” value in data set [1] was “Fixes both RBC's and WBC's”. For the same compound, the “Fixation of WBC's” value in data set [2] is “Fixes both RBC's and WBC's”. Also, the Formaldehyde release entry in data set [3] is recorded as “Decomposition liberates formaldehyde”.

`O=C(NCO)NCO` [Dimethylol urea, dimethylol urea]: in [4], the “Average Death Days” value is on record as greater than 65 days.

For `C=O` [Formaldehyde, formaldehyde, reference compound], the “Disc-gel electrophoresis result with albumin” value in data set [5] is “a large number of multimers and insoluble proteins result”. For the same compound, in data set [6] (in vivo), the “Dermal Toxicity” value turned out to be 270 mg/kg and the “Inhalation Toxicity” value was determined as 500 mg/kg. In addition, the 50% lethal dose (LD50) in [6] (in vivo, read-out: LD50) turned out to be 800 mg/kg.

On to `CC1(C)C(=O)N(CO)C(=O)N1CO` [Glydant, Dimethylol-5,5-dimethylhydantoin], for which the “Viability by vital staining” value in data set [7] is listed as “none of the cells were viable”. For the same compound, in data set [1], the “Fixation of RBC's” value was “Fixes both RBC's and WBC's”. Besides, in data set [2], the “Fixation of WBC's” value is “Fixes both RBC's and WBC's”. The compound further came in with a Formaldehyde content in data set [3] (setting [10]) of 2.1%. The “Average Death Days” value in data set [4] is given as greater than 65 days.

Take `O=C(O)CNCO` [Suttocide, Sodium hydroxymethyl glycinate]: the “Fixation of RBC's” value in data set [1] was “Fixes RBC's and WBC's”. Also, the “Fixation of WBC's” value in [2] is “Fixes RBC's and WBC's”. Moreover, the Formaldehyde content in data set [3] (setting [10]) is reported as 1%.

With diazolidinyl urea, the “Fixation of RBC's” value in [1] is “Fixes both RBC's and WBC's”. Further, in data set [5], the “Disc-gel electrophoresis result with albumin” value is “no change in the rate of migration of the protein”. Moreover, the “Fixation of WBC's” value in data set [2] was “Fixes both RBC's and WBC's”. In addition, the Formaldehyde content in [3] is reported as 1-2 ppm. Moreover, in data set [6] (in vivo), the “Dermal Toxicity” value is given as 2000 mg/kg and the “Inhalation Toxicity” value is “None”. Further, in data set [6], the LD50 was found to be 2570 mg/kg.

With imidazolidinyl urea, in data set [7], the “Viability by vital staining” value is “none of the cells were viable”. In addition, in data set [1], the “Fixation of RBC's” value was “Fixes both RBC's and WBC's”. Besides, in data set [8] (1% IDU in PBS-EDTA, 1:1, 6° C., one hour), the “Effect on white blood cells, prefixation” value was “stabilize the white blood cells without interfering with the lysis of the red blood cells”. In addition, the “Effect on cells, fixation” value in [8] (3% IDU, 6° C., 2 days) is “stabilizes the cells for use on the flow cytometer”. In data set [8] (IDU concentrations higher than 3%), the “Effect on cells, fixation at higher concentrations” value is “causing cells to lose the cluster designation marker and produce scatterplot changes”. Also, the “Effect on cells, fixation at lower concentrations” value in data set [8] (IDU concentrations lower than 3%) is “reducing stability”. In addition, the “Fixation of WBC's” value in [2] is “Fixes both RBC's and WBC's”. Besides, the Formaldehyde release entry in data set [3] is given as “Decomposition releases formaldehyde”. For the same compound, the “Average Death Days” value in data set [4] is listed as greater than 65 days. Moreover, in [9] (14 days), the “percent increase in antibody titer over formalin, 14 Days” value was 200%. Moreover, the “percent increase in antibody titer over formalin, 28 Days” value in data set [9] (28 days) is recorded as 560%.

For the compound “para formaldehyde [Control, reference compound]”, in data set [4], the “Average Death Days” value is recorded as 10 days.

For orientation: LD50 means the dose expected to kill half of the subjects tested.
